Data published in PMC3366831 (The Journal of Biological Chemistry, 2012).

Assays:
PAPSS2 = molecular target: T1, PAPSS2 (Homo sapiens, UniProt O95340); assay: thermal unfolding by CD at […] nm; format: binding; conditions: about 0.5 μM protein, pH 7.3, 1 mM MgCl2, 25 °C/h
T1 sequence (O95340 1-614): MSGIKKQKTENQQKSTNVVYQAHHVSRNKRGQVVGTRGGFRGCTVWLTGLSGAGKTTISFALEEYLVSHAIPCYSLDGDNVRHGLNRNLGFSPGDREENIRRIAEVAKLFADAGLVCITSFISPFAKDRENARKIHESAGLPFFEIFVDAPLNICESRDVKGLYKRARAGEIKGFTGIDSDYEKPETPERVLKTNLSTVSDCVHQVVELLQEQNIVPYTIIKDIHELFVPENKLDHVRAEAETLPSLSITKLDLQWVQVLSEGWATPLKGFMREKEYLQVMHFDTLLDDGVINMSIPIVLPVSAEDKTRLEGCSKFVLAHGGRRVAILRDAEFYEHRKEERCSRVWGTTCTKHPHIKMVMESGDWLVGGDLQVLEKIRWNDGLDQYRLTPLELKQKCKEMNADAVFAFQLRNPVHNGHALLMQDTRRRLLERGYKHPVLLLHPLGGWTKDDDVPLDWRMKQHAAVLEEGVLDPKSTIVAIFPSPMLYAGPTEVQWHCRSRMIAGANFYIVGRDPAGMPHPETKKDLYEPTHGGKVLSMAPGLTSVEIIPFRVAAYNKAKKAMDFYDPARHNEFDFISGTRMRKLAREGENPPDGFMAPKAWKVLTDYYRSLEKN

PAPSS1 = molecular target: T2, PAPSS1 (Homo sapiens, UniProt O43252); assay: thermal unfolding by CD at […] nm; format: binding; conditions: about 0.5 μM protein, pH 7.3, 1 mM MgCl2, 25 °C/h
T2 sequence (O43252 1-624): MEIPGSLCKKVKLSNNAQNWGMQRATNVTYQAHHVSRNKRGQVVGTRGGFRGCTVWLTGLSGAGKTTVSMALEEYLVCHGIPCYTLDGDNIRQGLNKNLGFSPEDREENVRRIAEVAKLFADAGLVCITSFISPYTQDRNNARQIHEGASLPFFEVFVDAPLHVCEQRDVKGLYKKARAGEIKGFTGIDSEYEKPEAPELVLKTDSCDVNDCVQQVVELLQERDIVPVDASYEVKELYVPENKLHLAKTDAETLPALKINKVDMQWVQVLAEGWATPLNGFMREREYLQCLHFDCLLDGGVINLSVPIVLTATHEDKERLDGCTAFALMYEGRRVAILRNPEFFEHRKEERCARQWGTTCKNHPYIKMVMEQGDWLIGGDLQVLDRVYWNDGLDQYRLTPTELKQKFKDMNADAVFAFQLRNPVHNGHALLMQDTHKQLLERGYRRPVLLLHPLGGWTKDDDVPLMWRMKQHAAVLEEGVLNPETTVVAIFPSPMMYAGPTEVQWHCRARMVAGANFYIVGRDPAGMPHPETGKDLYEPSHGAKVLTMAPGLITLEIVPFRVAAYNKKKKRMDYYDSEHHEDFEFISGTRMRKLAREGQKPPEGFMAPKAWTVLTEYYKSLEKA

With `Nc1ncnc2c1ncn2[C@@H]1O[C@H](COP(=O)(O)OP(=O)(O)O)[C@@H](O)[C@H]1O` [ADP] the “thermal unfolding by CD at 225 nm” value (PAPSS2; 100 μM ADP) was “moderate effects on PAPSS1 and -S2 stability were observed for ADP and PAPS” and the “thermal unfolding by CD at 225 nm” value (PAPSS1; 100 μM ADP) was “moderate effects on PAPSS1 and -S2 stability were observed for ADP and PAPS”.

`Nc1ncnc2c1ncn2[C@@H]1O[C@H](COP(=O)(O)OS(=O)(=O)O)[C@@H](OP(=O)(O)O)[C@H]1O` [PAPS] was tested, and the “thermal unfolding by CD at 225 nm” value (PAPSS2; 50 μM PAPS) was “moderate effects on PAPSS1 and -S2 stability were observed for ADP and PAPS” and the “thermal unfolding by CD at 225 nm” value (PAPSS1; 50 μM PAPS) was “moderate effects on PAPSS1 and -S2 stability were observed for ADP and PAPS”.

For `Nc1ncnc2c1ncn2[C@@H]1O[C@H](COP(=O)(O)OP(=O)(O)OP(=O)(O)O)[C@@H](O)[C@H]1O` [ATP], the “thermal unfolding by CD at 225 nm” value (PAPSS2; 100 μM ATP) was “ATP had a slight stabilizing effect on PAPSS2”.
